{"source": "paper PMC4192545", "about": "“Suramin Inhibits Hsp104 ATPase and Disaggregase Activity” (PLoS ONE, 2014)", "system": "HAP (Hsp104 variant) with ClpP", "assay": "FITC-casein degradation (substrate translocation) assay", "format": "biochemical", "settings": "25°C", "experimental": "FITC-casein (0.1 µM) was incubated with HAP (1 µM hexamer) and ClpP (21 µM monomer) at 25°C. ATP ([…]) and an ATP-regenerating system were included in all reactions. Varying concentrations of Suramin (0, 25, or 100 µM) were included as noted. We monitored degradation of FITC-casein by measuring fluorescence (excitation 490 nm, emission 520 nm) using a Tecan Safire^2 microplate reader (Tecan, Männedorf, Switzerland).\nNext, we established that Suramin hampers substrate translocation by Hsp104 using an engineered Hsp104 variant, HAP, which anchors to the bacterial peptidase ClpP to form a novel proteolytic system. Thus, HAP translocates fluorescein isothiocyanate (FITC)-casein for degradation by ClpP. Fluorescence increases as FITC is released from degraded casein and can be used as a surrogate for substrate translocation. […] Note that both the unfolding and translocation activities appear less sensitive to Suramin than disaggregase activity ( Figures 3B , 4A and 4B ). Thus, disaggregation of protein aggregates makes more stringent demands on the Hsp104 hexamer than the unfolding or translocation of soluble substrates. Altogether, we have established that Suramin greatly decreases Hsp104 ATPase activity, drastically impairs its capacity to refold luciferase and hinders its substrate unfolding and translocation activities.", "data": [{"smiles": "Cc1ccc(C(=O)Nc2ccc(S(=O)(=O)O)c3cc(S(=O)(=O)O)cc(S(=O)(=O)O)c23)cc1NC(=O)c1cccc(NC(=O)Nc2cccc(C(=O)Nc3cc(C(=O)Nc4ccc(S(=O)(=O)O)c5cc(S(=O)(=O)O)cc(S(=O)(=O)O)c45)ccc3C)c2)c1", "note": "[Suramin]", "values": [{"measurement": "Effect on substrate translocation (FITC-casein degradation by HAP/ClpP)", "setting": "Suramin 25 µM", "result": "permits translocation activity equivalent to that by untreated HAP in conjunction with ClpP"}, {"measurement": "Effect on substrate translocation (FITC-casein degradation by HAP/ClpP)", "setting": "Suramin 100 µM", "result": "completely abolished substrate translocation"}]}]}
